Tested on: Salmonella typhimurium
Test: Bacterial proliferation assay (inhibition halo on agar plates)
Format: cell-based
Settings: before vs after passage through the ionic therapeutic contact lenses; 2×10^9/mL bacteria on agar-coated plates; 24 hours; FIG. 4
Description: The influence of lens interaction on the antibacterial effect of chloramphenicol was tested with a bacterial challenge using Salmonella typhimurium seeding 2×10^9/mL bacteria on agar-coated plates. An antibiotic disk was inserted in the middle of the plate to verify the inhibition halo around the dish after 24 hours. Both the chloramphenicol eye drops and the liquid suspending the therapeutic lenses for storage were tested. The antibacterial capacity of chloramphenicol was comparatively tested before and after the passage through the ionic therapeutic contact lenses according to the invention. The diameter of the clear halo around the chloramphenicol depot area (central white spot) was not different.

## O=C(N[C@H](CO)[C@H](O)c1ccc([N+](=O)[O-])cc1)C(Cl)Cl [chloramphenicol]
  diameter of the clear halo around the chloramphenicol depot area: not different

— patent US20260235789A1, “THERAPEUTIC LENSES FOR USE AS OCULAR BANDAGE AND SIMULTANEOUSLY FOR THE ADMINISTRATION OF EYE DROPS” (EYE PHARMA SPA, priority 2021, published 2026)
